Reference: patent US9023865B2, “Compounds that are ERK inhibitors” (Merck Sharp & Dohme Corp., priority 2011, dated 2015)

What follows are compounds tested against Active Human ERK2 (hERK2) (Homo sapiens (Human), UniProt P28482) (assay: Active Human ERK2 (hERK2) Activity Assay (IMAP-FP)). Settings: phosphorylated active hERK2, 30 μM ATP; average; read-out: ERK 2 Human average IC50.
Assay type: biochemical
Procedure, shortened: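 Reaction contains 0.5 nM activated hERK2, 900 nM unlabeled plus 80 nM labeled peptide and 30 μM ATP, run 60 min. Quenched with IMAP binding beads in buffer with 24 mM NaCl; fluorescence polarization read after 60 min binding equilibration.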

Sequence of Active Human ERK2 (hERK2) (P28482 whole entry): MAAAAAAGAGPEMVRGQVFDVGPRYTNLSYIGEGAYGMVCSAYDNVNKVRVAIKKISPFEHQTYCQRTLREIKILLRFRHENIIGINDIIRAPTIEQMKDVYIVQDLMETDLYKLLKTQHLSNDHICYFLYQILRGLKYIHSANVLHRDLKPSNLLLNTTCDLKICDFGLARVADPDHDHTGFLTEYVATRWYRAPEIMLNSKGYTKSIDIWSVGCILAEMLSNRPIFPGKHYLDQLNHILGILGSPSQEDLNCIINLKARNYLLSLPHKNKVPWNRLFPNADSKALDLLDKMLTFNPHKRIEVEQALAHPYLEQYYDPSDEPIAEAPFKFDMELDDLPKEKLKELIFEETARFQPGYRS

Compared with `C[C@@H](NC(=O)Nc1cc2[nH]nc(-c3ccc(S(C)(=O)=O)cc3)c2cn1)c1ccccc1` [Example 89, 1-{3-[4-(methylsulfonyl)phenyl]-1H-pyrazolo[4,3-c]pyridin-6-yl}-3-[(1R)-1-phenylethyl]urea], `C[C@@H](NC(=O)Nc1cc2[nH]nc(-c3ccnc(F)c3)c2cn1)c1ccccc1` [Example 636] is 5.3-fold lower in IC50: 1.33 nM for the first, 0.251 nM for the second. The second is the more potent here.

First: COC[C@@H](NC(=O)Nc1cc2[nH]nc(C3CC3(F)F)c2cn1)c1ccccc1 (stereo partly shown) [Example 163]
Second: COC[C@@H](NC(=O)Nc1cc2[nH]nc(C3=NOC(C)C3)c2cn1)c1ccccc1 (stereo partly shown) [Example 686]
The IC50 of the first is 4.9-fold lower: 4.89 nM for the first, 23.8 nM for the second.

Going from `Cc1cc(-c2n[nH]c3cc(NC(=O)NC(C)C4CCOC4)ncc23)ccn1` (stereo not shown) [Example 528] to `Cc1cc(-c2n[nH]c3cc(NC(=O)N[C@H](C)C4CCCCC4)ncc23)ccn1` [Example 575], the IC50 falls from 12.7 nM to 1.2 nM (11-fold). The second is the more potent here.

First: CCO[C@H]1CN(C)C[C@@H]1NC(=O)Nc1cc2[nH]nc(-c3ccc(F)cc3)c2cn1 [Example 319]
Second: O=C(NCC1CCC1)Nc1cc2[nH]nc(-c3ccc(F)cc3)c2cn1 [Example 592]
The IC50 of the first is 5.5-fold lower: 0.521 nM for the first, 2.88 nM for the second.

`Cc1cc(-c2n[nH]c3cc(NC(=O)N[C@@H](c4ccccc4)[C@@H]4CCCO4)ncc23)ccn1` [Example 554] and `Cc1cc(-c2n[nH]c3cc(NC(=O)N[C@@H](c4ccccc4)[C@H]4CCCO4)ncc23)ccn1` [Example 553] are within 1.5-fold of each other in IC50: 0.262 nM for the first, 0.26 nM for the second.

Going from `Cc1cc(-c2n[nH]c3cc(NC(=O)N[C@H]4CN(C)C[C@@H]4C4CC4)ncc23)ccn1` [Example 209] to `Cc1cc(-c2n[nH]c3cc(NC(=O)NC4CNC4)ncc23)ccn1` [Example 39, 1-azetidin-3-yl-3-[3-(2-methylpyridin-4-yl)-1H-pyrazolo[4,3-c]pyridin-6-yl]urea], the IC50 rises from 8.27 nM to 60.3 nM (7.3-fold). The first is the more potent here.

First: Cc1cc(-c2n[nH]c3cc(NC(=O)N[C@@H](c4ccc(F)cc4)C(F)(F)F)ncc23)ccn1 [Example 280]
Second: Cc1cc(-c2n[nH]c3cc(NC(=O)NC(c4ccc(F)cc4)C4CCCO4)ncc23)ccn1 (stereo not shown) [Example 238]
The IC50 of the first is 11-fold higher: 9.83 nM for the first, 0.935 nM for the second. The second is the more potent here.

Going from `CCCC(=O)c1n[nH]c2cc(NC(=O)N[C@H](COC)c3ccccc3)ncc12` [Example 684] to `COCCNC(=O)c1n[nH]c2cc(NC(=O)N[C@H](C)c3ccccc3)ncc12` [Example 116, N-(2-methoxyethyl)-6-({[(1R)-1-phenylethyl]carbamoyl}amino)-1H-pyrazolo[4,3-c]pyridine-3-carboxamide], the IC50 falls from 26.8 nM to 10.7 nM (2.5-fold).

Going from `COc1ccnc([C@@H](C)NC(=O)Nc2cc3[nH]nc(-c4ccnc(C)c4)c3cn2)c1` [Example 231] to `Cc1ccnc(C(C)NC(=O)Nc2cc3[nH]nc(-c4ccnc(C)c4)c3cn2)c1` (stereo not shown) [Example 498], the IC50 rises from 1.53 nM to 2.82 nM (1.8-fold).

First: COC[C@H](NC(=O)Nc1cc2[nH]nc(-c3ccc(F)cc3)c2cn1)c1ccccn1 [Example 486]
Second: COCC(NC(=O)Nc1cc2[nH]nc(-c3ccnc(C)c3)c2cn1)c1ccccn1 (stereo not shown) [Example 348]
The IC50 of the first is 11-fold higher: 23.5 nM for the first, 2.16 nM for the second. The second is the more potent here.

Going from `Cn1cc(-c2n[nH]c3cc(NC(=O)NCC4CCC4)ncc23)cn1` [Example 590] to `Cc1cc(-c2n[nH]c3cc(NC(=O)NCC(O)C4CCCCC4)ncc23)ccn1` (stereo not shown) [Example 389], the IC50 rises from 2.06 nM to 4.11 nM (2-fold). The first is the more potent here.

Going from `C[C@@H](NC(=O)Nc1cc2[nH]nc(-c3ccc(F)cc3)c2cn1)C1CCCCC1` [Example 594] to `C[C@@H](NC(=O)Nc1cc2[nH]nc(C3CC3)c2cn1)c1ccc(F)cc1` [Example 141], the IC50 falls from 3.78 nM to 2.43 nM (1.6-fold).

Going from `Cc1cc(-c2n[nH]c3cc(NC(=O)NC4CCN(S(C)(=O)=O)c5ccccc54)ncc23)ccn1` (stereo not shown) [Example 277] to `Cc1cc(-c2n[nH]c3cc(NC(=O)NCc4cccc(S(C)(=O)=O)c4)ncc23)ccn1` [Example 619], the IC50 falls from 1.35 nM to 0.159 nM (8.5-fold). The second is the more potent here.

`Cc1cc(-c2n[nH]c3cc(NC(=O)N[C@@H]4CNC[C@H]4F)ncc23)ccn1` [Example 325] and `Cc1cc(-c2n[nH]c3cc(NC(=O)NCC4CNC(=O)O4)ncc23)ccn1` (stereo not shown) [Example 466] are within 1.5-fold of each other in IC50: 3.96 nM for the first, 2.81 nM for the second.

Going from `COC[C@@H](NC(=O)Nc1cc2[nH]nc(-c3cc(C)on3)c2cn1)c1ccc(F)cc1` [Example 688] to `COC[C@@H](NC(=O)Nc1cc2[nH]nc(-c3ccnc(C4CC4)c3)c2cn1)c1ccccc1` [Example 605], the IC50 falls from 5.39 nM to 0.326 nM (17-fold). The second is the more potent here.

Going from `Cc1cc(-c2n[nH]c3cc(NC(=O)NC(CN)c4ccccc4)ncc23)ccn1` (stereo not shown) [Example 361] to `Cc1cc(-c2n[nH]c3cc(NC(=O)N[C@@H](CN)c4ccccc4)ncc23)ccn1` [Example 172], the IC50 rises from 0.232 nM to 243 nM (1000-fold). The first is the more potent here.

First: Cc1cc(-c2n[nH]c3cc(NC(=O)NC4CCc5[nH]nc(C)c5C4)ncc23)ccn1 (stereo not shown) [Example 507]
Second: Cc1cc(-c2n[nH]c3cc(NC(=O)NCc4ncc[nH]4)ncc23)ccn1 [Example 427]
The IC50 of the first is 1.8-fold lower: 0.762 nM for the first, 1.36 nM for the second.

Compared with `Cc1cc(-c2n[nH]c3cc(NC(=O)NCC(O)C(F)(F)F)ncc23)ccn1` (stereo not shown) [Example 195], `Cc1cc(-c2n[nH]c3cc(NC(=O)NCCc4ccccn4)ncc23)ccn1` [Example 47, 1-[3-(2-methylpyridin-4-yl)-1H-pyrazolo[4,3-c]pyridin-6-yl]-3-(2-pyridin-2-ylethyl)urea] is 3.4-fold lower in IC50: 8.06 nM for the first, 2.34 nM for the second.

Going from `C[C@@H](NC(=O)Nc1cc2[nH]nc(C(=O)NCC3(O)CCC3)c2cn1)c1ccccc1` [Example 136] to `C[C@@H](NC(=O)Nc1cc2[nH]nc(C(=O)NCC(O)C(F)F)c2cn1)c1ccccc1` (stereo partly shown) [Example 123], the IC50 falls from 11.9 nM to 4.49 nM (2.7-fold). The second is the more potent here.

Compared with `Cc1cc(-c2n[nH]c3cc(NC(=O)NC(c4cccnc4)C(F)F)ncc23)ccn1` (stereo not shown) [Example 509], `Cc1ccc(C(C)NC(=O)Nc2cc3[nH]nc(-c4ccnc(C)c4)c3cn2)nc1` (stereo not shown) [Example 339] is 2-fold higher in IC50: 3.07 nM for the first, 6.08 nM for the second. The first is the more potent here.

`O=C(NCc1ccc(F)c(Cl)c1)Nc1cc2[nH]nc(-c3ccnc(F)c3)c2cn1` [Example 58, 1-(3-chloro-4-fluorobenzyl)-3-[3-(2-fluoropyridin-4-yl)-1H-pyrazolo[4,3-c]pyridin-6-yl]urea] and `COc1cccc(F)c1CN1CCC[C@@H](NC(=O)Nc2cc3[nH]nc(-c4ccnc(F)c4)c3cn2)C1` [Example 649] are within 1.5-fold of each other in IC50: 1 nM for the first, 1.06 nM for the second.

Going from `CCOC(=O)CCc1n[nH]c2cc(NC(=O)NCc3ccccc3)ncc12` [Example 173, Ethyl 3-(6-(3-benzylureido)-1H-pyrazolo[4,3-c]pyridin-3-yl)propanoate] to `Cc1cc(-c2n[nH]c3cc(NC(=O)NCC4CNC(c5ccccc5)C4)ncc23)ccn1` (stereo not shown) [Example 409], the IC50 falls from 39.8 nM to 5.69 nM (7-fold). The second is the more potent here.

`Cc1cc(-c2n[nH]c3c(F)c(NC(=O)N[C@H](CO)c4ccccc4)ncc23)ccn1` [Example 544] and `Cc1cc(-c2n[nH]c3cc(NC(=O)N[C@H](C)c4ccc(C#N)cc4)ncc23)ccn1` [Example 234] are within 1.5-fold of each other in IC50: 1.28 nM for the first, 0.861 nM for the second.

Compared with `C[C@@H](NC(=O)Nc1cc2[nH]nc(-c3ccc(-n4nccn4)cc3)c2cn1)c1ccc(F)cc1` [Example 247], `Cc1cc(-c2n[nH]c3cc(NC(=O)NC4(c5ccc(F)cc5)CC4)ncc23)ccn1` [Example 343] is 2.4-fold lower in IC50: 45 nM for the first, 18.7 nM for the second. The second is the more potent here.

First: Cc1cc(-c2n[nH]c3cc(NC(=O)NCCC4COc5ccccc5O4)ncc23)ccn1 (stereo not shown) [Example 373]
Second: Cc1cc(-c2n[nH]c3cc(NC(=O)NC(CCN4CCCC4)c4ccncc4)ncc23)ccn1 (stereo not shown) [Example 378]
The IC50 of the first is 52-fold lower: 1.07 nM for the first, 55.6 nM for the second. The first is the more potent here.

Same assay, conditions: read-out: AERK2 IC50 (Active human ERK2 Activity Assay)

`C[C@@H](NC(=O)Nc1cc2[nH]nc(-c3ccc(S(C)(=O)=O)cc3)c2cn1)c1ccccc1` [Example 89, 1-{3-[4-(methylsulfonyl)phenyl]-1H-pyrazolo[4,3-c]pyridin-6-yl}-3-[(1R)-1-phenylethyl]urea] and `O=C(NCc1ccc(F)c(Cl)c1)Nc1cc2[nH]nc(-c3ccnc(F)c3)c2cn1` [Example 58, 1-(3-chloro-4-fluorobenzyl)-3-[3-(2-fluoropyridin-4-yl)-1H-pyrazolo[4,3-c]pyridin-6-yl]urea] fall in the same range of IC50: 0.2 to 1.7 nM for the first, 0.2 to 1.7 nM for the second.
